Laboratory results reported in PubChem BioAssay AID467 (The Scripps Research Institute Molecular Screening Center, 2006).
Activity calls are given as the source filed them. How the calls were made is not given here.

Test system: parental cell line counter screen, S1P1 agonist assay readout
Experiment: signal in parental cells, counter-screen for S1P1 agonist project (AID 467);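 further: agonist potency measured against forskolin stimulation plus an EC20 level of SEW2871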

Row | SMILES | EC50
1 | Cc1cccc(-n2ncc3c(N(C)C4CCCCC4)ncnc32)c1 | > 95.1 µM (inactive)
2 | COc1ccc2c(c1)CCc1c(C(=O)Nc3ccc(OC)c(OC)c3)noc1-2 | > 95.1 µM (inactive)
3 | CC(C)C(c1nnnn1Cc1ccccc1)N(Cc1ccco1)Cc1cccs1 (stereo unspecified) | > 95.1 µM (inactive)
4 | CCOC(=O)c1ccc(NC(=O)CCc2nc(-c3ccc(Cl)cc3)no2)cc1 | > 95.1 µM (inactive)
5 | O=C(CSC1=NCCS1)Nc1ccnc2ccccc12 | 11.1 µM (inactive)
6 | COc1cccc(NC(=O)Nc2nnc(N3CCCCC3C)s2)c1 (stereo unspecified) | 40 µM (inactive)
7 | O=C(CSc1nnc(-c2ccc(Cl)cc2)n1Cc1ccco1)c1cccs1 | > 30 µM (inactive)
8 | Clc1ccc(OCCN2CCN(c3ncnc4sccc34)CC2)cc1 | 2.63 µM
9 | O=C1CC(N2CCN(C/C=C/c3ccccc3)CC2)C(=O)N1CCc1ccccc1 (stereo unspecified) | > 30 µM (inactive)
10 | COc1ccc(-c2cn3c(C)c(C(=O)Nc4ccncc4)sc3n2)cc1 | > 95.1 µM (inactive)
11 | Nc1nonc1C(=O)NCCNCc1cc(Br)ccc1OCc1ccc(F)cc1 | 30.5 µM (inactive)
12 | Nc1nonc1C(=O)NCCNCc1cc(Br)ccc1OCc1ccccc1F | 28.9 µM (inactive)
13 | Cc1nnc2ccc(Oc3ccc(-c4ccccc4)cc3)nn12 | > 30 µM (inactive)
14 | CCc1ccc(-c2nc(CSCC(=O)N3CCN(c4ccccn4)CC3)c(C)o2)cc1 | 18.7 µM (inactive)
15 | COc1ccc(-n2c(C)cc(C(=O)COC(=O)Cn3cnc4ccccc43)c2C)cc1 | > 30 µM (inactive)
16 | CCN(CC)c1ccc(-n2c(C)c(C(C)=O)c(C(C)=O)c2C)cc1 | > 95.1 µM (inactive)
17 | CC(C)(C)OC(=O)N[C@@H](Cc1ccccc1)c1nnc(S(=O)(=O)Cc2ccccc2)o1 | 1.51 µM
18 | c1ccc(N2CCN(Cc3ccnc4ccccc34)CC2)cc1 | 47.9 µM (inactive)
19 | Nn1c(Nc2ccccc2)nc2sc3c(c2c1=O)CCC3 | > 30 µM (inactive)
20 | CCCC(=O)N1CCN(c2ccc(NC(=O)c3cc4ccccc4o3)cc2Cl)CC1 | 10.8 µM (inactive)
21 | CC1=C(/C=C/C(C)=C/C=C/C(C)=C/C(=O)O)C(C)(C)CCC1 | > 95.1 µM (inactive)
22 | Cc1ccccc1OCC(=O)Nc1ccc(N2CCN(C(=O)C(C)C)CC2)c(Cl)c1 | 26 µM (inactive)
23 | Cc1noc(C)c1S(=O)(=O)N(CC(=O)Nc1ccc2c(c1)OCO2)c1ccc(C(C)C)cc1 | > 95.1 µM (inactive)
24 | O=C(Nc1c(F)cc(F)cc1Br)c1cc(-c2ccc(O)cc2)on1 | 53.6 µM (inactive)
25 | CCc1nnc(NC(=O)C2CCCCC2)s1 | > 95.1 µM (inactive)
26 | O=C(C1CC1)N1CCc2cc(S(=O)(=O)NCC3COc4ccccc4O3)ccc21 (stereo unspecified) | > 30 µM (inactive)

Row | SMILES | EC50
27 | CCC(NC(=O)Nc1nnc(C(F)(F)F)s1)(C(F)(F)F)C(F)(F)F | > 95.1 µM (inactive)
28 | Cc1ccc(Cl)cc1N1CCN(C(=O)C2CCN(c3nnc(-n4cccc4)s3)CC2)CC1 | > 95.1 µM (inactive)
29 | CC(C)OCCCNc1ncnc2c1[nH]c1ccccc12 | 43 µM (inactive)
30 | COC(=O)c1ccc(CSc2nc3ccccc3c(=O)n2Cc2ccco2)o1 | > 95.1 µM (inactive)
31 | Cc1cc(C(=O)CN2C(=O)c3ccccc3C2=O)c(C)n1Cc1cccs1 | > 95.1 µM (inactive)
32 | COc1ccc(OC)c(-c2cc(C(=O)Nc3c(C)nn(Cc4ccc(Cl)cc4)c3C)no2)c1 | > 95.1 µM (inactive)
33 | CCC1CCCCN1C(=O)CSc1nnc(-c2c[nH]c3ccccc23)o1 (stereo unspecified) | > 30 µM (inactive)
34 | Cc1occc1C(=O)N1CCN(c2ccc(Cl)c(Cl)c2)CC1 | 43.9 µM (inactive)
35 | Nc1ccc(N2CCCCCC2)cc1 | 9.89 µM
36 | O=S(=O)(Nc1ccc2c(c1)OCCO2)c1ccc2oc3ccccc3c2c1 | 16.4 µM (inactive)
37 | Cc1ccc(OCCn2cc(/C(N)=N/O)c3ccccc32)cc1C | 17 µM (inactive)
38 | CC(C)[C@H](NC(=O)OC(C)(C)C)c1nnc(SCC(=O)Nc2ccc(Br)cc2)o1 | > 30 µM (inactive)
39 | CCN(CC)C(=O)Oc1ccc2c(=O)c(-c3ccc(OC)cc3)coc2c1 | > 95.1 µM (inactive)
40 | Nc1c(C(=O)NC2CCCC2)sc2nc(-c3cccs3)ccc12 | 23.1 µM (inactive)
41 | Cc1cc(/C=c2/sc3nc4ccccc4n3c2=O)c(C)n1-c1ccccn1 | > 95.1 µM (inactive)
42 | CCOC(=O)c1cccc2c1-c1ccccc1/C2=N/O | 12 µM (inactive)
43 | COc1ccc(CCNc2ncnc3c2oc2ccccc23)cc1OC | 5.31 µM
44 | O=C(Nc1ccc(O)cc1)c1cc2n(n1)C(C(F)(F)F)CC(c1ccco1)N2 (stereo unspecified) | > 95.1 µM (inactive)
45 | CCOC(=O)c1sc2nc(NC(=O)C(C)(C)C)sc2c1C | > 10 µM (inactive)
46 | Cc1ccc(-c2csc(N3CCC(NS(=O)(=O)c4ccc5c(c4)OCCO5)CC3)n2)cc1 | 5.75 µM
47 | Cc1oc2cc(O)cc(O)c2c(=O)c1-c1ccc2c(c1)OCCCO2 | > 30 µM (inactive)
48 | COc1ccc(-c2nc(-c3cccc(C)c3)no2)cc1OC | > 95.1 µM (inactive)
49 | Cc1csc(NC(=O)c2nc(-c3ccccc3)n(-c3ccccc3)n2)n1 | > 95.1 µM (inactive)
50 | Cc1ccc(Cl)cc1N1CCN(C(=O)COc2ccc(S(=O)(=O)NC(C)C)cc2)CC1 | 30 µM (inactive)
51 | Cc1cccc(NC(=O)Nc2ccc(C#N)cc2)n1 | 43 µM (inactive)
52 | COc1ccc(C(=O)C(CN2CCOCC2)c2ccccc2)cc1F (stereo unspecified) | 8.06 µM

Row | SMILES | EC50
53 | COc1cccc2sc(Nc3nc(-c4ccccn4)cs3)nc12 | 8.08 µM
54 | O=C(CSc1nnc(-c2c[nH]c3ccccc23)o1)N(Cc1ccccc1)c1ccc(F)cc1 | 16 µM (inactive)
55 | O=S1(=O)C=C(Sc2nnc(-c3ccccc3)o2)c2ccccc21 | 3.16 µM
56 | COc1ccccc1Oc1ccc2c(c1)C(=O)N(c1cccc(O)c1)C2=O | > 30 µM (inactive)
57 | CC1CCc2nc(NC(=O)CSc3nc4ccccc4o3)sc2C1 (stereo unspecified) | > 95.1 µM (inactive)
58 | NC(=O)c1ccc(OCC(F)(F)C(F)(F)C(F)(F)C(F)(F)C(F)(F)C(F)F)cc1 | > 95.1 µM (inactive)
59 | CC(C)c1ccc(OCc2nc(-c3ccccn3)no2)c(Br)c1 | 63 µM (inactive)
60 | COc1ccc(N2C(=O)CC(Sc3ncn[nH]3)C2=O)c(OC)c1 (stereo unspecified) | 4.91 µM
61 | O=C(Nc1ccc(Cl)cc1)N1CCC(c2nc(-c3ccc(F)cc3)no2)CC1 | 20 µM (inactive)
62 | Cc1nc(C)c(C(=O)Nc2ccc(Oc3ccccc3)cc2)o1 | > 30 µM (inactive)
63 | Cc1cc2nc(-c3ccc(NC(=O)C(C)C)cc3)oc2cc1C | > 95.1 µM (inactive)
64 | O=S1(=O)Nc2c(ccc3cccnc23)-c2ccccc21 | > 95.1 µM (inactive)
65 | CCN(CC)S(=O)(=O)c1cc(C(=O)Nc2ccncc2)ccc1Cl | > 95.1 µM (inactive)
66 | CCOC(=O)Cc1csc(NC(=O)c2ccc(Br)s2)n1 | 47.9 µM (inactive)
67 | COc1ccc(-c2noc(-c3ccccc3F)n2)cc1 | > 95.1 µM (inactive)
68 | O=C(NCc1ccc2c(c1)OCO2)C1CC(=O)N(C2CCCCCCC2)C1 (stereo unspecified) | > 95.1 µM (inactive)
69 | C=CCN1C(=Nc2cccnc2)SCC1(O)c1ccc(C)cc1 (stereo unspecified) | 31.9 µM (inactive)
70 | CCOc1ccc(-c2noc(-c3cccnc3)n2)cc1OC | > 95.1 µM (inactive)
71 | CC(C)(C)SCCNS(=O)(=O)c1ccccc1 | > 95.1 µM (inactive)
72 | Nc1nnnn1/N=C/C(Br)=C/c1ccccc1 | 4.08 µM
73 | O=C(Nc1ccc(S(=O)(=O)NCc2ccco2)cc1)c1ccc2ccccc2n1 | > 95.1 µM (inactive)
74 | CCOc1ccc(S(=O)(=O)N2CCN(c3ccc(C)cc3C)CC2)cc1 | > 95.1 µM (inactive)
75 | COc1ccccc1-c1cc(C(=O)Nc2ccccc2SC)no1 | > 95.1 µM (inactive)
76 | Cn1nc(CC(=O)Nc2ccc(N3CCN(C(=O)OC(C)(C)C)CC3)cc2)c2ccccc2c1=O | > 95.1 µM (inactive)
77 | Cc1cc(NC(=O)c2oc3ccccc3c2C)ccc1-n1cnnn1 | > 30 µM (inactive)
78 | CCCc1cc(C(=O)N2CCN(C(c3ccccc3)c3ccccc3)CC2)no1 | > 95.1 µM (inactive)

Row | SMILES | EC50
79 | Cc1cc(C(=O)CSc2nnnn2-c2ccc(O)cc2)c(C)n1Cc1ccc2c(c1)OCO2 | 11.9 µM (inactive)
80 | CCCCOc1ncnc2c1[nH]c1ccccc12 | 37.9 µM (inactive)
81 | O=S(=O)(NCc1cn2ccsc2n1)c1ccc(Oc2ccccc2)cc1 | 45.3 µM (inactive)
82 | CCOc1ccc(-c2nnc(-c3cccnc3)o2)cc1OCC | > 95.1 µM (inactive)
83 | c1csc(CCNc2ncnc3sc4c(c23)CCC4)c1 | 20.3 µM (inactive)
84 | COc1ccc(-n2nc3ccc(NS(C)(=O)=O)cc3n2)cc1Cl | > 95.1 µM (inactive)
85 | CCc1c(C)sc(NC(=O)c2cc(-c3ccco3)on2)c1C#N | > 95.1 µM (inactive)
86 | CCc1c(C)nc2ncnn2c1NCCc1ccc(OC)cc1 | 40.9 µM (inactive)
87 | CCc1cc(-c2[nH]ncc2-c2ccc3c(c2)OCO3)c(O)cc1O | 9.08 µM
88 | c1ccc(CSc2nnc(-c3c[nH]c4ccccc34)o2)cc1 | 41.4 µM (inactive)
89 | C/C(N)=C(/C#N)C(=O)CSc1nc2cc(Cl)ccc2s1 | 49.5 µM (inactive)
90 | O=C(NCc1ccco1)C1CCN(C(=O)c2cc3sccc3n2Cc2ccc(Cl)cc2)CC1 | 22.4 µM (inactive)
91 | COc1ccccc1Oc1ccc2c(c1)C(=O)N(c1ccc(O)cc1)C2=O | > 95.1 µM (inactive)
92 | CCCn1c(CNc2ccc(Br)cc2)nc2ccccc21 | 38.1 µM (inactive)
93 | O=C1C2CCCN2C(c2cccnc2)N1c1cccc(Cl)c1 (stereo unspecified) | > 95.1 µM (inactive)
94 | Cc1cc(C)n2nc(SCC(=O)c3cc(C)n(-c4cc(C)on4)c3C)nc2n1 | 63.5 µM (inactive)
95 | Cc1ccsc1C(=O)OCC(=O)c1cc(C)n(CC2CCCO2)c1C (stereo unspecified) | > 95.1 µM (inactive)
96 | Cc1ccc(-n2ncc3c(N4CCCC(C)C4)ncnc32)c(C)c1 (stereo unspecified) | 36.1 µM (inactive)
97 | Clc1ccc(CSc2nnc(-c3ccncc3)o2)c(Cl)c1 | > 95.1 µM (inactive)
98 | CC(C)Cc1cc(C(=O)Nc2cc(Br)ccc2O)no1 | > 10 µM (inactive)
99 | COc1ccc(N2CCn3c2nc2c3c(=O)n(CCCc3ccccc3)c(=O)n2C)c(OC)c1 | > 10 µM (inactive)
100 | CCCCCn1c(=O)c(C(=O)NCc2ccncc2)c(O)c2ccccc21 | 30.8 µM (inactive)
101 | O=c1c(-c2ccc3c(c2)OCCO3)c(C(F)(F)F)oc2cc(O)cc(O)c12 | 18.4 µM (inactive)
